Experimental data from ChEMBL document CHEMBL5131432, “Novel 2,4-disubstituted quinazoline analogs as antibacterial agents with improved cytotoxicity profile: Modification of the benzenoid part” (Bioorg Med Chem Lett, 2022).
Converted amounts (≈) assume the structure as drawn.

Columns and labels:
[1] = Chemical stability of compound in DMSO assessed as change in retardation factor incubated for 2 days; format: physicochemical; settings: 48 h; time 2 day
Enterococcus faecalis = experiment: Antibacterial activity against Enterococcus faecalis DSM-20478 assessed as bacterial growth inhibition; format: functional
Escherichia coli [2] = experiment: Antibacterial activity against wild type Escherichia coli DSM-11116 assessed as bacterial growth inhibition; format: functional
Staphylococcus aureus [3] = experiment: Antibacterial activity against methicillin-sensitive Staphylococcus aureus Newman assessed as bacterial growth inhibition; format: functional
[4] = Chemical stability of compound in DMSO assessed as change in physico-chemical properties incubated for 2 days; format: physicochemical; settings: 48 h; time 2 day
Staphylococcus aureus [5] = experiment: Antibacterial activity against methicillin-resistant and vancomycin-intermediate Staphylococcus aureus Mu50 assessed as bacterial growth inhibition; format: functional
Streptococcus pneumoniae [6] = experiment: Antibacterial activity against Streptococcus pneumoniae DSM-20566 assessed as bacterial growth inhibition; format: functional
[7] = Chemical stability of compound in DMSO assessed as change in mass and purity incubated for 2 days by LC-MS analysis; format: physicochemical; settings: 48 h; time 2 day
Escherichia coli [8] = experiment: Antibacterial activity against Escherichia coli K12 harbouring TolC-deficient mutant assessed as bacterial growth inhibition; format: functional
[9] = tested on: Mycolicibacterium smegmatis; experiment: Antibacterial activity against Mycobacterium smegmatis mc2 155 assessed as bacterial growth inhibition; format: functional
Streptococcus pneumoniae [10] = experiment: Antibacterial activity against penicillin-resistant Streptococcus pneumoniae DSM-11865 assessed as bacterial growth inhibition; format: functional
Staphylococcus aureus [11] = experiment: Antibacterial activity against methicillin-resistant Staphylococcus aureus N315 assessed as bacterial growth inhibition; format: functional
Enterococcus faecium = experiment: Antibacterial activity against Enterococcus faecium DSM-20477 assessed as bacterial growth inhibition; format: functional
[12] = Stability of the compound in presence of 25kGy gamma irradiation assessed as change in mass and purity by LC-MS analysis; format: physicochemical
[13] = Cytotoxicity against human HepG2 cells assessed as inhibition of cell growth; format: toxicity, cell-based

In the case of CCCCNc1nc(SCCCC)nc2ccc(-c3ccccc3)cc12, the Stability [1] is reported as “Stable”, the MIC (Enterococcus faecalis) is reported as > 128 µg/mL and the MIC (Escherichia coli [2]) is reported as > 128 µg/mL. For the same compound, the MIC (Staphylococcus aureus [3]) was > 128 µg/mL, the Stability [4] was “Stable” and the MIC (Staphylococcus aureus [5]) was > 128 µg/mL. The MIC (Streptococcus pneumoniae [6]) was > 128 µg/mL, the Stability [7] was “Stable” and the MIC (Escherichia coli [8]) was > 128 µg/mL. For the same compound, the MIC [9] was > 128 µg/mL, the MIC (Streptococcus pneumoniae [10]) was > 128 µg/mL and the MIC (Staphylococcus aureus [11]) was > 128 µg/mL. For the same compound, the MIC (Enterococcus faecium) was > 128 µg/mL and the Stability [12] was “Stable”.

In the case of CCCCNc1nc(SCCCC)nc2sccc12, the MIC (Enterococcus faecalis) is reported as > 128 µg/mL, the MIC (Escherichia coli [2]) is reported as > 128 µg/mL and the MIC (Staphylococcus aureus [3]) is reported as 8 µg/mL (≈ 27.1 µM). The MIC (Staphylococcus aureus [5]) was > 128 µg/mL, the MIC (Streptococcus pneumoniae [6]) was 8 µg/mL (≈ 27.1 µM) and the MIC (Escherichia coli [8]) was 8 µg/mL (≈ 27.1 µM). The IC50 [13] was > 37 µg/mL, the MIC [9] was 16 µg/mL (≈ 54.1 µM) and the MIC (Streptococcus pneumoniae [10]) was 8 µg/mL (≈ 27.1 µM). For the same compound, the MIC (Staphylococcus aureus [11]) was 32 µg/mL (≈ 108 µM) and the MIC (Enterococcus faecium) was > 128 µg/mL.

In the case of CCCCNc1nc(SCCCC)nc2ccc(-c3cccnc3)cc12, the MIC (Enterococcus faecalis) is reported as > 128 µg/mL, the MIC (Escherichia coli [2]) is reported as > 128 µg/mL and the MIC (Staphylococcus aureus [3]) is reported as > 128 µg/mL. The MIC (Staphylococcus aureus [5]) was > 128 µg/mL, the MIC (Streptococcus pneumoniae [6]) was > 128 µg/mL and the MIC (Escherichia coli [8]) was > 128 µg/mL. For the same compound, the MIC [9] was > 128 µg/mL, the MIC (Streptococcus pneumoniae [10]) was > 128 µg/mL and the MIC (Staphylococcus aureus [11]) was > 128 µg/mL. The MIC (Enterococcus faecium) was > 128 µg/mL.

For CCCCNc1nc(SCCCC)nc2cc(F)ccc12, the Stability [1] was “Stable”, the MIC (Enterococcus faecalis) was > 128 µg/mL and the MIC (Escherichia coli [2]) was > 128 µg/mL. The MIC (Staphylococcus aureus [3]) was > 128 µg/mL, the Stability [4] was “Stable” and the MIC (Staphylococcus aureus [5]) was > 128 µg/mL. For the same compound, the MIC (Streptococcus pneumoniae [6]) was > 128 µg/mL, the Stability [7] was “Stable” and the MIC (Escherichia coli [8]) was > 128 µg/mL. The MIC [9] was > 128 µg/mL, the MIC (Streptococcus pneumoniae [10]) was > 128 µg/mL and the MIC (Staphylococcus aureus [11]) was > 128 µg/mL. The MIC (Enterococcus faecium) was > 128 µg/mL and the Stability [12] was “Stable”.

With CCCCNc1nc(SCCCC)nc2ccc(-c3ccncc3)cc12 the MIC (Enterococcus faecalis) was > 128 µg/mL, the MIC (Escherichia coli [2]) was > 128 µg/mL and the MIC (Staphylococcus aureus [3]) was > 128 µg/mL. For the same compound, the MIC (Staphylococcus aureus [5]) was > 128 µg/mL, the MIC (Streptococcus pneumoniae [6]) was > 128 µg/mL and the MIC (Escherichia coli [8]) was > 128 µg/mL. For the same compound, the MIC [9] was > 128 µg/mL, the MIC (Streptococcus pneumoniae [10]) was > 128 µg/mL and the MIC (Staphylococcus aureus [11]) was > 128 µg/mL. For the same compound, the MIC (Enterococcus faecium) was > 128 µg/mL.

For CCCCSc1nc(SCCCC)c2cc(N)ccc2n1, the MIC (Enterococcus faecalis) was 32 µg/mL (≈ 99.5 µM), the MIC (Escherichia coli [2]) was > 128 µg/mL and the MIC (Staphylococcus aureus [3]) was 8 µg/mL (≈ 24.9 µM). For the same compound, the MIC (Staphylococcus aureus [5]) was 4 µg/mL (≈ 12.4 µM), the MIC (Streptococcus pneumoniae [6]) was 4 µg/mL (≈ 12.4 µM) and the MIC (Escherichia coli [8]) was > 128 µg/mL. The IC50 [13] was > 37 µg/mL, the MIC [9] was 32 µg/mL (≈ 99.5 µM) and the MIC (Streptococcus pneumoniae [10]) was 8 µg/mL (≈ 24.9 µM). It also gave an MIC (Staphylococcus aureus [11]) of 4 µg/mL (≈ 12.4 µM) and an MIC (Enterococcus faecium) of 8 µg/mL (≈ 24.9 µM).

In the case of CCCCSc1nc(SCCCC)c2cc(NS(=O)(=O)CC)ccc2n1, the MIC (Enterococcus faecalis) is reported as 8 µg/mL (≈ 19.3 µM), the MIC (Escherichia coli [2]) is reported as > 128 µg/mL and the MIC (Staphylococcus aureus [3]) is reported as > 128 µg/mL. For the same compound, the MIC (Staphylococcus aureus [5]) was > 128 µg/mL, the MIC (Streptococcus pneumoniae [6]) was 4 µg/mL (≈ 9.67 µM) and the MIC (Escherichia coli [8]) was > 128 µg/mL. The IC50 [13] was > 37 µg/mL, the MIC [9] was > 128 µg/mL and the MIC (Streptococcus pneumoniae [10]) was 3 µg/mL (≈ 7.25 µM). The MIC (Staphylococcus aureus [11]) was > 128 µg/mL and the MIC (Enterococcus faecium) was 8 µg/mL (≈ 19.3 µM).

For CCCCNc1nc(SCCCC)nc2ccc(-c3ccc(C(=O)O)cc3)cc12, the MIC (Enterococcus faecalis) was > 128 µg/mL, the MIC (Escherichia coli [2]) was > 128 µg/mL and the MIC (Staphylococcus aureus [3]) was > 128 µg/mL. For the same compound, the MIC (Staphylococcus aureus [5]) was > 128 µg/mL, the MIC (Streptococcus pneumoniae [6]) was > 128 µg/mL and the MIC (Escherichia coli [8]) was > 128 µg/mL. The MIC [9] was > 128 µg/mL, the MIC (Streptococcus pneumoniae [10]) was > 128 µg/mL and the MIC (Staphylococcus aureus [11]) was > 128 µg/mL. The MIC (Enterococcus faecium) was > 128 µg/mL.

With CCCCNc1nc(SCCCC)nc2cc(-c3cccnc3)ccc12 the MIC (Enterococcus faecalis) was > 128 µg/mL, the MIC (Escherichia coli [2]) was > 128 µg/mL and the MIC (Staphylococcus aureus [3]) was > 128 µg/mL. For the same compound, the MIC (Staphylococcus aureus [5]) was > 128 µg/mL, the MIC (Streptococcus pneumoniae [6]) was > 128 µg/mL and the MIC (Escherichia coli [8]) was > 128 µg/mL. The MIC [9] was > 128 µg/mL, the MIC (Streptococcus pneumoniae [10]) was > 128 µg/mL and the MIC (Staphylococcus aureus [11]) was > 128 µg/mL. For the same compound, the MIC (Enterococcus faecium) was > 128 µg/mL.

For CCCCNc1nc(SCCCC)nc2cc(Cl)ccc12, the MIC (Enterococcus faecalis) was > 128 µg/mL, the MIC (Escherichia coli [2]) was > 128 µg/mL and the MIC (Staphylococcus aureus [3]) was > 128 µg/mL. For the same compound, the MIC (Staphylococcus aureus [5]) was > 128 µg/mL, the MIC (Streptococcus pneumoniae [6]) was > 128 µg/mL and the MIC (Escherichia coli [8]) was > 128 µg/mL. The MIC [9] was > 128 µg/mL, the MIC (Streptococcus pneumoniae [10]) was > 128 µg/mL and the MIC (Staphylococcus aureus [11]) was > 128 µg/mL. The MIC (Enterococcus faecium) was > 128 µg/mL.

With CCCCNc1nc(SCCCC)nc2ccc(-c3cccc(C#N)c3)cc12 the MIC (Enterococcus faecalis) was > 128 µg/mL, the MIC (Escherichia coli [2]) was > 128 µg/mL and the MIC (Staphylococcus aureus [3]) was > 128 µg/mL. For the same compound, the MIC (Staphylococcus aureus [5]) was > 128 µg/mL, the MIC (Streptococcus pneumoniae [6]) was > 128 µg/mL and the MIC (Escherichia coli [8]) was > 128 µg/mL. For the same compound, the MIC [9] was > 128 µg/mL, the MIC (Streptococcus pneumoniae [10]) was > 128 µg/mL and the MIC (Staphylococcus aureus [11]) was > 128 µg/mL. The MIC (Enterococcus faecium) was > 128 µg/mL.

With CCCCNc1nc(SCCCC)nc2ccc(NC(=O)NCC)cc12 the MIC (Enterococcus faecalis) was > 128 µg/mL, the MIC (Escherichia coli [2]) was > 128 µg/mL and the MIC (Staphylococcus aureus [3]) was > 128 µg/mL. The MIC (Staphylococcus aureus [5]) was > 128 µg/mL, the MIC (Streptococcus pneumoniae [6]) was > 128 µg/mL and the MIC (Escherichia coli [8]) was > 128 µg/mL. The MIC [9] was > 128 µg/mL, the MIC (Streptococcus pneumoniae [10]) was > 128 µg/mL and the MIC (Staphylococcus aureus [11]) was > 128 µg/mL. For the same compound, the MIC (Enterococcus faecium) was > 128 µg/mL.

For CCCCNc1nc(SCCCC)nc2ccc(Br)cc12, the MIC (Enterococcus faecalis) was > 128 µg/mL, the MIC (Escherichia coli [2]) was > 128 µg/mL and the MIC (Staphylococcus aureus [3]) was > 128 µg/mL. For the same compound, the MIC (Staphylococcus aureus [5]) was > 128 µg/mL, the MIC (Streptococcus pneumoniae [6]) was > 128 µg/mL and the MIC (Escherichia coli [8]) was > 128 µg/mL. The MIC [9] was > 128 µg/mL, the MIC (Streptococcus pneumoniae [10]) was > 128 µg/mL and the MIC (Staphylococcus aureus [11]) was > 128 µg/mL. For the same compound, the MIC (Enterococcus faecium) was > 128 µg/mL.
